Results taken from patent US8628752B2, “Methods of identifying HSP90 inhibitors with less ocular toxicity” (Synta Pharmaceuticals Corp., priority 2011, dated 2014).
pIC50: −log10 of the molar value. Several values for one entry are separate records, joined by “and”; a condition that tells them apart may be missing. Equal values may be shown once. Entries after “also recorded” stand apart in the source; their conditions may differ. Read-outs that look alike come from different tables or passages of the source.

Legend:
photoreceptors [1] = conditions: rat, in vivo, iv; for Incidences (#affected/total): male, Sprague-Dawley, 2 days
HER2 in BT-474 cells = test: HER2 degradation assay (anti-HER2 FITC flow cytometry); format: cell-based; conditions: 24 h treatment
Experimental: HER2 positive cells were determined using anti-HER2 conjugated FITC (BD, 540553) according to manufacturer's instruction (BD Biosciences). 0.2×10^6 BT-474 cells were plated in 12-well culture plates in Dulbecco's Modified Eagle's Medium containing 10% fetal bovine serum and 1.5 g/L sodium bicarbonate. Cells were treated with the indicated compounds over a 10-1000 nM concentration range for 24 h. Cells were collected and stained with a FITC-conjugated anti-HER2 antibody for 30 min at room temperature. HER2-positive cells (fluorescence intensity) were determined by flow cytometry (excitation at 495 nm and emission at 529 nm) using a Becton Dickinson LSRII equipped with CellQuest Pro software. […]

[2] = for Elimination from the retina (in words) / Retina/plasma (R/P) ratio (in words): rats; for Retina/plasma (R/P) ratio (in words): 6 h post-dose
in vivo [3] = conditions: male, Sprague-Dawley, rat, iv; for Kp at 0.5 h / Kp at 6 h: in vivo
in vivo [4] = conditions: male, Sprague-Dawley, rat, iv
photoreceptors [5] = test: Photoreceptor degeneration/apoptosis in rat eyes (H&E, TUNEL) after i.v. dosing; conditions: for Photoreceptor degeneration (in words) / Ocular toxicity / photoreceptor injury in rats (in words): rats; for Ocular toxicity / photoreceptor injury in rats (in words): short-term studies
[6] = phase I trials, clinical reports, cited from earlier work
retina [7] = test: Ganetespib 3-month toxicology study, ocular histopathology; format: in vivo; conditions: SD rats (M + F), max. dose 100 mg/kg, 1 hour i.v. infusion, Days 1 & 15 of four 21-day cycles
retina [8] = test: as above; format: in vivo, cynomolgus monkeys; conditions: Monkeys (M + F), max. dose 7 mg/kg, 1 hour i.v. infusion, Days 1 & 15 of four 21-day cycles
[9] = Ocular adverse events in clinical studies with ganetespib; format: in vivo, humans
retina [10] = conditions: repeated doses; cited from earlier work
[11] = SD rats, all testing doses of the compound, i.v.
[12] = male, Sprague-Dawley, rat, in vivo, iv, 2 days
[13] = male, Sprague-Dawley, rat, in vivo, iv
[14] = male, Sprague-Dawley, rat, in vivo, iv, 0.5 h
[15] = male, Sprague-Dawley, rat, in vivo, iv, 6 h
[16] = SD rats, i.v., between 0.5 and 6 h post-dose
[17] = SD rats, i.v., Day 2, 0.5 h, mg/kg: AUY922 10, 17-DMAG 20, Compound 1 50, 17-AAG 80
[18] = SD rats, i.v., Day 2, 6 h, mg/kg: AUY922 10, 17-DMAG 20, Compound 1 50, 17-AAG 80
[19] = SD rats, 8, 20, 60, 100/80 mg/kg/d x2, i.v.

CC(C)c1cc(C(=O)N2Cc3ccc(CN4CCN(C)CC4)cc3C2)c(O)cc1O [AT-13387]
Incidences (#affected/total) (photoreceptors [1]; 3 mg/kg/day): 6/6
Incidences (#affected/total) (photoreceptors [1]; 30 mg/kg/day): 0/3
Incidences (#affected/total) (photoreceptors [1]; 60 mg/kg/day): 2/3
Mortality (in-house study) [11]: 0/9
Other findings (in-house study) [12]: ↓ Body weight gain

CCNC(=O)c1noc(-c2cc(C(C)C)c(O)cc2O)c1-c1ccc(CN2CCOCC2)cc1 [AUY-922]
pIC50 (HER2 in BT-474 cells): > 7.52
pIC50 (HER2 in BT-474 cells; Homo sapiens, BT-474, 24 h): 7.52
Incidences (#affected/total) (photoreceptors [1]; 3 mg/kg/day): 0/3
Incidences (#affected/total) (photoreceptors [1]; 60 mg/kg/day): 3/3
Ocular toxicity / photoreceptor injury in rats (in words) (photoreceptors [1]): most severe ocular effects
TUNEL (photoreceptors [1]): +-++
Toxicity: mortality (SD rats, 3-60 mg/kg i.v., in 2-3 days post-dose): No mortality
Mortality (in-house study) [11]: 0/12
Other findings (in-house study) [12]: tail edema
Other findings (in-house study) (rat, in vivo, iv): ↓ Body weight gain)
Retina % remain at 6 h of drug present at 0.5 h [2, 13]: (53.5) %
Retina %↓ 0.5-6 h (drug eliminated from retina) [2, 13]: 46.5%
Plasma concentration [2, 14]: 1120 nM
Retina concentration [2, 14]: 4.75 µM
Plasma concentration [2, 15]: 15.4 nM
Retina concentration [2, 15]: 2.54 µM
Kp at 0.5 h (in vivo [3]): 4.24
Kp at 6 h (in vivo [3]): 165

CC(C)c1cc(-c2nnc(S)n2-c2ccc3c(ccn3C)c2)c(O)cc1O [Compound 1, 4-isopropyl-6-(5-mercapto-4-(1-methyl-1H-indol-5-yl)-4H-1,2,4-triazol-3-yl)benzene-1,3-diol]
pIC50 (HER2 in BT-474 cells; Homo sapiens, BT-474, 24 h): 7.22
Mortality (in-house study) [12]: 0/15
Other findings (in-house study) (rat, in vivo, 100 mg/kg): (ECG change
Retina %↓ 0.5-6 h (drug eliminated from retina) [2, 16]: 78.5%
Retina %↓ 0.5-6 h (drug eliminated from retina) ([2]; SD rats, i.v., between 0.5 and 6 h post-dose, listed as compound 1): 79%
MTD (in vivo [4]): 100 mg/kg
concentration at 0.5 h (in vivo [3]; cerebrospinal fluid): 19.4 nM
concentration at 0.5 h (in vivo [3]; plasma): 19500 nM
concentration at 6 h (in vivo [3]; plasma): 104 nM
concentration at 0.5 h (in vivo [3]; retina): 10400 nM
concentration at 6 h (in vivo [3]; retina): 2240 nM
Incidences (#affected/total) (photoreceptors [5]; SD rats, 10 mg/kg/d x2, i.v.): 0/3
Severity (TUNEL + area & density) (photoreceptors [5]; SD rats, 10 mg/kg/d x2, i.v.): (−) ((−) ≦ 20 cells/section)
Incidences (#affected/total) (photoreceptors [5]; SD rats, 20 mg/kg/d x2, i.v.): 0/3
Severity (TUNEL + area & density) (photoreceptors [5]; SD rats, 20 mg/kg/d x2, i.v.): (−) ((−) ≦ 20 cells/section)
Incidences (#affected/total) (photoreceptors [5]; SD rats, 30 mg/kg/d x2, i.v.): 0/3
Severity (TUNEL + area & density) (photoreceptors [5]; SD rats, 30 mg/kg/d x2, i.v.): (−) (1/3±, 22 ((−) ≦ 20 cells/section)
Photoreceptor degeneration/apoptosis (photoreceptors [5]; SD rats, 50 mg/kg i.v.): (±)
Incidences (#affected/total) (photoreceptors [5]; SD rats, 50 mg/kg/d x2, i.v.): 3/3
Severity (TUNEL + area & density) (photoreceptors [5]; SD rats, 50 mg/kg/d x2, i.v.): (±) ((±) 21-30 cells/section)
Incidences (#affected/total) (photoreceptors [5]; SD rats, 100 mg/kg/d x2, i.v.): 3/3
Photoreceptor degeneration/apoptosis (photoreceptors [5]; SD rats, 10, 20, 30 mg/kg i.v.): (−) ((−) ≦20 cells/section)
Photoreceptor degeneration (in words) (photoreceptors [5]; doses active in animal tumor models): Photoreceptor degeneration was not observed
Photoreceptor degeneration (in words) (photoreceptors [5]; higher dose(s)): only minimal degeneration; also recorded: only minimal-mild changes
Ocular toxicity / photoreceptor injury in rats (in words) (photoreceptors [5]; i.v.): Mild or no ocular toxicity

C=CCNC1=C2C[C@@H](C)C[C@H](OC)[C@H](O)[C@@H](C)/C=C(\C)[C@H](OC(N)=O)[C@@H](OC)/C=C\C=C(/C)C(=O)NC(=CC1=O)C2=O [Compound 17-AAG]
pIC50 (HER2 in BT-474 cells): 6.82 to 7.00
Mortality (in-house study) (SD rats, 100 mg/kg in 5 min): 1/3; 100 mg/kg in 5 min,
Mortality (in-house study) (SD rats, 120 mg/kg in 5 min): 1/1: 120 mg/kg in 5 min.
Toxicity: Mortality (dose) (SD rats, i.v.): 100 mg/kg
CSF concentration [2, 17]: 0.434 µM
Plasma concentration [2, 17]: 26500 nM
R/P ratio (retina/plasma) [2, 17]: 1.70
Retina concentration [2, 17]: 45.1 µM
CSF concentration [2, 18]: 0.00433 µM
Plasma concentration [2, 18]: 262 nM
R/P ratio (retina/plasma) [2, 18]: 9.58
Retina concentration [2, 18]: 2.51 µM
Retina % remain at 6 h of drug present at 0.5 h [2, 16]: (5.6) %
Retina %↓ 0.5-6 h (drug eliminated from retina) [2, 16]: 94% and 94.4%
Elimination from the retina (in words) [2]: more rapidly eliminated from the retina
Retina/plasma (R/P) ratio (in words) [2]: lower R/P ratios; also recorded: low R/P ratio
Visual adverse effects in clinical trials / clinical subjects [6]: absence of clinically-reported visual changes
Photoreceptor degeneration/apoptosis (photoreceptors [5]; SD rats, 8, 20, 60 mg/kg i.v.): (−) ((−) ≦20 cells/section)
Incidences (#affected/total) (photoreceptors [5]; [19]): 0/10
Severity (TUNEL + area & density) (photoreceptors [5]; [19]): (−) ((−) ≦ 20 cells/section)
Photoreceptor degeneration/apoptosis (photoreceptors [5]; SD rats, 80 (100) mg/kg i.v.): (−) ((−) ≦20 cells/section)
TUNEL (photoreceptors [5]; SD rats, i.v., mg/kg: AUY922 10, 17-DMAG 20, Compound 1 50, 17-AAG 80): (−) ((−) ≦ 20 cells/section)
Ocular toxicity / photoreceptor injury in rats (in words) (photoreceptors [5]; i.v.): Mild or no ocular toxicity; also recorded: absence of ocular effects; also recorded: did not produce detectable photoreceptor injury; also recorded: did not induce ocular toxicity in rats

CO[C@H]1/C=C\C=C(/C)C(=O)NC2=CC(=O)C(NCCN(C)C)=C(C[C@@H](C)C[C@H](OC)[C@H](O)[C@@H](C)/C=C(\C)[C@@H]1OC(N)=O)C2=O [Compound 17-DMAG]
pIC50 (HER2 in BT-474 cells; Homo sapiens): 7.22
Mortality (in-house study) (SD rats, 25 mg/kg/d x3, 72 hrs): 3/3 @ 25
Toxicity: Mortality (dose) (SD rats, i.v., x 3 days): 25 mg/kg/dx
CSF concentration [2, 17]: 0.0799 µM
Plasma concentration [2, 17]: 4710 nM
Retina concentration [2, 17]: 32.0 µM
CSF concentration [2, 18]: 0.00376 µM
Plasma concentration [2, 18]: 317 nM
Retina concentration [2, 18]: 16.2 µM
Retina %↓ 0.5-6 h (drug eliminated from retina) [2, 16]: 49.4%
Elimination from the retina (in words) [2]: longer retention time; also recorded: slow elimination rate
Retina/plasma (R/P) ratio (in words) [2]: high retina/plasma (R/P) ratio
Visual adverse effects in clinical trials / clinical subjects ([6]; listed as alvespimycin): Visual symptoms, including blurred vision
Kp at 0.5 h (in vivo [3]): 6.79
Kp at 6 h (in vivo [3]): 51.1
Incidences (#affected/total) (photoreceptors [5]; SD rats, 10 mg/kg/d x2, i.v.): 3/3
Incidences (#affected/total) (photoreceptors [5]; SD rats, 20, 25 mg/kg/d x2, i.v.): 6/6
Ocular toxicity / photoreceptor injury in rats (in words) (photoreceptors [5]; i.v.): marked photoreceptor cell death; also recorded: produced ocular toxicity

CC(C)c1cc(-c2n[nH]c(=O)n2-c2ccc3c(ccn3C)c2)c(O)cc1O [Ganetespib, 3-(2,4-dihydroxy-5-isopropyl-phenyl)-4-(1-methyl-indol-5-yl)-5-hydroxy-[1,2,4]triazole]
pIC50 (HER2 in BT-474 cells; Homo sapiens, BT-474, 24 h): 7.52
Ocular histopathology evaluation (retina [7]): No changes
Ocular histopathology evaluation (retina [8]): No changes
Severity of ocular toxicities in clinical studies (in words) ([9]; clinical studies with ganetespib): absence of severe common ocular toxicities
Chromatopsia, all adverse events, Grade 1 ([9]; n = 390, number (%)): 1 (<1%)
Chromatopsia, related adverse events, Grade 1 ([9]; n = 390, number (%)): 1 (<1%)
Difficulty with night vision, all adverse events, Grade 1 ([9]; n = 390, number (%)): 1 (<1%)
Vision blurred, all adverse events, Grade 1 ([9]; n = 390, number (%)): 11 (3%)
Vision blurred, all adverse events, Grade 2 ([9]; n = 390, number (%)): 2 (<1%)
Vision blurred, related adverse events, Grade 1 ([9]; n = 390, number (%)): 4 (1%)
Visual acuity reduced, all adverse events, Grade 1 ([9]; n = 390, number (%)): 2 (<1%)
Visual acuity reduced, related adverse events, Grade 1 ([9]; n = 390, number (%)): 1 (<1%)
Visual impairment, all adverse events, Grade 1 ([9]; n = 390, number (%)): 5 (1%)
Visual impairment, related adverse events, Grade 1 ([9]; n = 390, number (%)): 2 (<1%)
Toxicity: exposure compared with human dose ([2]; SD rats, 20 mg/kg i.v., Cmax & AUCt > human dose): Cmax & AUCt >
Elimination from the retina (in words) [2]: more rapidly eliminated from the retina
Retina/plasma (R/P) ratio (in words) [2]: lower R/P ratios
Photoreceptor degeneration/apoptosis (photoreceptors [5]; SD rats, 20 mg/kg i.v.): (−) ((−) ≦20 cells/section)
Ocular toxicity / photoreceptor injury in rats (in words) (photoreceptors [5]; i.v.): absence of ocular effects; also recorded: did not induce ocular toxicity

CC1(C)CC(=O)c2c(C(F)(F)F)nn(-c3ccc(C(N)=O)c(N[C@H]4CC[C@H](OC(=O)CN)CC4)c3)c2C1 [PF-04929113]
Retinal injury in dogs (retina [10]): photoreceptor degeneration and/or cell death
